The record followed here is publication PMC8145986, “In Vitro Enzymatic and Kinetic Studies, and In Silico Drug-Receptor Interactions, and Drug-Like Profiling of the 5-Styrylbenzamide Derivatives as Potential Cholinesterase and β-Secretase Inhibitors with Antioxidant Properties” (Antioxidants, 2021).

A short description of data set [1]: Metal chelation study by UV-vis spectrometry. In kind it is physicochemical. The conditions noted are these: room temperature. The procedure:
The metal chelating ability of compounds 2a and 3b toward Cu^2+ and Zn^2+ was evaluated by ultraviolet–visible (UV–Vis) spectrometry. A solution of the test compound in methanol (30 μM, final concentration) alone or in the presence of CuCl2 or ZnCl2 (30 μM, final concentration) was stirred at RT for 30 min. The absorption spectra were recorded at room temperature on a PerkinElmer UV/Vis spectrometer (Perkin Elmer, Inc., Midrand, Johannesburg, South Africa) at wavelengths ranging from 200 to 1200 nm.
The ability of compound 2a to chelate Cu^2+ or Zn^2+ was assessed using a UV–vis spectrophotometric assay with a wavelength in the region of 200–1200 nm. The absorption spectrum of 2a (Figure 2) acquired in methanol at room temperature is characterized by four discernible absorption bands, around λ 300, 500, 690, and 1000 nm, respectively. These bands are reduced to two distinct bands of different intensities in the presence of either CuCl2 or ZnCl2. […] A bathochromic shift of the band found around 500 nm in the spectrum of 2a to around 580 nm in the presence of ZnCl2 occurred with no broadening. 2-Aminobenzamide is known to bind the Cu(II) ion through the amino-N and amido-O atoms.

A short description of data set [2]: in vitro. Conditions: human, A549 cells (adeno-carcinomic human epithelial cells). The procedure: (§1) The cytotoxicity activity of the compounds was evaluated using the 3-(4,5-dimethylthiazol-2-yl)-2,5-diphenyltetrazolium bromide (MTT) assay following a modification of a method by Mosmann. Normal monkey kidney cells (Vero cells) and adeno-carcinomic human epithelial cells (A549 cells) were maintained in Dulbecco’s modified Eagle’s medium (DMEM, Gibco) supplemented with 10% fetal bovine serum (FBS) and 1% penicillin/streptomycin in culture flasks and incubated at 37 °C in 5% CO2. […] Cells were seeded at 1 × 10^5 cells/well and incubated overnight to allow cell attachment. After 24 h, treatments were administered with different concentrations (0, 2.5, 5, 10, 25, 50, and 100 μM) of the compounds and doxorubicin (positive control). After 24 h of incubation, 20 μL of the MTT solution (5 mg/mL) was added in all the wells, which was followed by 4 h of incubation.

Data set [3] is described as follows: Nitric oxide radical scavenging assay (Griess reaction). The conditions noted are these: NO radical scavenging. The procedure:
Nitric oxide was generated from sodium nitroprusside and measured by Griess’ reaction following the literature method. The experiment was done in triplicate with ascorbic acid (vitamin C) used as a positive control for the assay. In total, 50 μL of each of the test compounds and the positive control at various concentrations (0.1, 0.5, 1.0, 5.0, and 10.0 μM in methanol) were added to each designated well of the 96 well plate. A total of 50 μL of sodium nitroprusside (10 mM) prepared in saline phosphate buffer (pH = 7.4) was then added to each well and the reaction mixture incubated at room temperature for 3 h. Afterward, 300 μL of the Griess reagent (a mixture of 0.2% N-(1-naphthyl)ethylenediamine dihydrochloride and 2% sulfanilamide in […]) was added to each well and absorbance was read at 546 nm using a Varioskan flash microplate spectrophotometer reader.
A general note: The Griess reaction detects nitrite, a stable product of nitric oxide.

Data set [4] in a line: Cytotoxicity (MTT assay) on Vero cells. The conditions noted are these: monkey, Vero cells (normal monkey kidney cells). Here is the method: as §1
In general terms: Tetrazolium dyes change colour on reduction, which living cells bring about.

In data set [5] the test system is Vero cells. In words: LPS-induced ROS production in Vero cells (H2DCF-DA). Format: cell-based, monkey. Conditions: 10 μM compound, LPS 1 μg/mL, 24 h (Figure 9a). Here is the method:
Mitochondrial ROS levels in Vero and A549 cell lines was measured using the 2′,7′-dichlorofluorescin diacetate (H2DCF-DA) (Sigma-Aldrich, St. Louis, MO, USA, Merck, Darmstadt, Germany), fluorescent probe. Cells (1 × 10^5) were seeded in 96 well plates and incubated overnight at 37 °C in 5% CO2. A minimum non-toxic concentration (10 μM) of compounds (2a and 3b) was added separately as treatment and further incubated for an hour, after which LPS (1 μg/mL) was added to induce the production of ROS. After 24 h of incubation, the media was aspirated, cells were rinsed with PBS, and followed by the addition of H2DCF-DA (10 μM) for 30 min in the dark. The absorbance of the fluorescence was measured using a microplate reader (VarioSkan Flash, Thermo Fisher Scientific, Finland) at 485 and 535 nm values of excitation and emission, respectively. Data was processed and analysed using ANOVA, which was followed by Duncan’s multiple comparison test.

The target in data set [6] is T1, AChE (Homo sapiens, UniProt P22303).
T1 construct: purchased BioLegend (via Biocom Africa (Pty) Ltd.)
T1 sequence (P22303 32-614): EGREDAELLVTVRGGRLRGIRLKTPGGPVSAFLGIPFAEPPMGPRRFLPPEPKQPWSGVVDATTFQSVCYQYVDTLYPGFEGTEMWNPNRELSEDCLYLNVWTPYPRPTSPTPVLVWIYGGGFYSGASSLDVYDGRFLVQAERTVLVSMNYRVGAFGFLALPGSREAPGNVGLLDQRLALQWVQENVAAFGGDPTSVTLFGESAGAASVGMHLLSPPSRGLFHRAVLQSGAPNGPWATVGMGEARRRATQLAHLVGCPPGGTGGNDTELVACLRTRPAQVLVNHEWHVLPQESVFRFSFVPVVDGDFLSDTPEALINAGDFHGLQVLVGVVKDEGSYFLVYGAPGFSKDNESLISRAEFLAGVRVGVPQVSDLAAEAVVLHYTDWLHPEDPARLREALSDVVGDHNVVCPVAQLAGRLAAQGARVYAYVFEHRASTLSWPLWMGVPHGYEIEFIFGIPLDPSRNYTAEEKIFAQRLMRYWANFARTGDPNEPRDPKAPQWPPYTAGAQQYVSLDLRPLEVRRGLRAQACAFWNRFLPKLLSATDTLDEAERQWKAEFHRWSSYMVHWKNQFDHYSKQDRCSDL
Briefly: biochemical. The conditions noted are these: mean ± SD of three independent experiments. Here is the method: The melting point values of the test compounds were recorded on a Thermocouple digital melting point apparatus (Mettler Toledo LLC, Columbus, OH, USA). The infrared (IR) spectra were recorded using the thin-film method on a Bruker VERTEX 70 FT-IR Spectrometer (Bruker Optics, Billerica, MA, USA) equipped with an ATR (diamond attenuated total reflectance) accessory. Merck kieselgel 60 (0.063–0.200 mm) (Merck KGaA, Frankfurt, Germany) was used as a stationary phase for column chromatography. The ^1H-NMR and ^13C-NMR spectra of the prepared compounds were obtained as deuterated dimethyl sulfoxide ((CD3)2SO) solutions using Agilent 500 MHz NMR spectrometer (Agilent Technologies, Oxford, UK) operating at 500 MHz and 125 MHz for ^1H and ^13C, respectively. The chemical shifts are quoted relative to tetramethylsilane (TMS) used as an internal reference standard (δ = 0.00 ppm) or a residual protonated solvent. The high-resolution mass spectra were recorded at an ionization potential of 70 eV using Micromass Autospec-TOF (double focusing high resolution) instrument (Waters Corp., Milford, MA, USA). The synthesis and analytical data for 2-amino-5-iodobenzamide (1) have been reported in our previous study. Recombinant human AChE (BioLegend) and BChE (Cloud-Clone Corp.) were purchased via Biocom Africa (Pty) Ltd. (Centurion, Pretoria, South Africa).
AChE and BChE were used to determine cholinesterase activities spectrophotometrically using […] as substrates, respectively, following a modification of the Ellman’s method, as described in our previous study, and the reactions were performed in triplicate at 37 °C in a 96-well plate. […] A multi-channel pipette was used for the addition of reagents to the wells.
To each well of a 96-well plate, 8.0 μL solution of the test compound, 2.0 μL of AChE (0.04 mg/mL), and 70 μL of Tris buffer (C4H11NO3, 50 mM, pH 7.7) were added sequentially. The assay mixture was pre-incubated for 30 min at room temperature, which was followed by the addition of 10 μL of 5,5′-dithiobis-(2-nitrobenzoic acid) (DTNB, 3 mM in Tris buffer, 50 mM, pH 7.7) and 10 μL of […] (AChI, 5 mM in tris buffer, 50 mM, pH 7.7) to each well to initiate the reaction. […] The average values obtained from the absorbance readings were used to determine the IC50 and standard deviation values using the Graph Pad Prism (version 5.0, GraphPad software Inc., San Diego, CA, USA).

What is called IC50 is the midpoint of a concentration-inhibition curve.

As to `NC(=O)c1cc(/C=C/c2ccccc2)ccc1N` [Compound 2a, (E)-2-Amino-5-styrylbenzamide], the “chelation of Cu2+” value in data set [1] (30 μM compound and 30 μM CuCl2 in methanol) is “selective for Cu (II) ion”. In addition, the “chelation of Zn2+” value in data set [1] (30 μM compound and 30 μM ZnCl2 in methanol) is reported as “relatively poor chelating ability”. Moreover, the IC50 at 24 h was found to be 35.4 ± 0.13 µM in data set [2] and 163 ± 0.55 µM in data set [4]. Also, the IC50 turned out to be 10.3 ± 0.12 µM in data set [3] and 2.3 ± 0.11 µM in data set [6]. The “suppression of LPS-induced ROS” value in data set [5] is “about 60%”.
